According to patent US5985927A, “Medicaments for the selective treatment of tumor tissues” (priority 1995, dated 1999):

Experiments:
K-562 cancer cells = assay: toxicity effect on K-562 cancer cells as a function of extracellular pH (FACScan and XTT-ELISA); format: cell-based
Description: Thus, the toxicity properties of a substance which comes under consideration can be determined experimentally by the FACScan and the XTT-ELISA techniques. Both methods are known in the prior art. […] FACS and XTT techniques can likewise be used to investigate the toxicity of the substances for mononuclear blood cells (MNCs). The proportion of dead cells is detected in the FACS technique by propidium iodide staining, and in the XTT method by conversion of XTT into formazan by mitochondrial dehydrogenase.
To detect pH-sensitive toxic substances, selected substances are allowed to act at various predetermined pH values, for example at pH 5.5, 6.0, 6.5, 7.0 and 7.5, both on tumor cell lines and on MNCs, for example for 4 hours and 24 hours, in order thereafter to measure the number of killed cancer cells or MNCs. Control measurements without addition of pH-sensitive substances are carried out in parallel with this.
The activity of the 4-succinic ester of 2,4-dihydroxybenzoic acid, of trans-3,4-difluorocinnamic acid and of 2,4-dinitrophenol has been investigated. Used for this purpose were the methods of the FACScan and ELISA techniques described above. […] FIG. 2A depicts the effect of trans-3,4-difluorocinnamic acid on K-562 cells. […] FIG. 2B depicts the effect of the same compound on MNCs.

[1] = tested on: mononuclear blood cells (MNCs); assay: toxicity on mononuclear blood cells (MNCs) as a function of extracellular pH (FACScan and XTT-ELISA); format: cell-based; details: extracellular pH in the range from 7.2 to 7.4; FIG. 1B
Description: A skilled person is able to find, with the aid of the above information and using his general expert knowledge and a few simple tests, as described hereinafter, compounds which are used according to the invention as medicinal substance. Thus, the toxicity properties of a substance which comes under consideration can be determined experimentally by the FACScan and the XTT-ELISA techniques. Both methods are known in the prior art. It is possible to investigate suspended cancer cell lines such as, for example, K-562, Raji or Daudi by both techniques, but adherent cancer cell lines only by the XTT-ELISA technique. FACS and XTT techniques can likewise be used to investigate the toxicity of the substances for mononuclear blood cells (MNCs). The proportion of dead cells is detected in the FACS technique by propidium iodide staining, and in the XTT method by conversion of XTT into formazan by mitochondrial dehydrogenase. The methods are described, for example, in Tumor-Biologie 1994, 15, 304 and in the biochemistry catalog of Boehringer Mannheim, Germany 0392.C 73.3.1465554 1 CB, Cat. No. 1465 015. […]

[2] = tested on: small-cell lung tumor (LXFS 650); assay: tumor growth of implanted small-cell lung tumor (LXFS 650) in nude mice; format: in vivo; details: tail vein injection, 4 consecutive days, FIG. 4
Description: The three compounds mentioned above by way of example have likewise been investigated for their in vivo suitability in an animal model. Nude mice are chosen as animal model, into which it is possible to implant various human tumors. This makes it possible to investigate the therapeutic efficacy of the substances under defined reproducible conditions. An animal experiment of this type is documented in FIG. 4. A routine method which is conventional in the prior art and is outlined below is used.
A small-cell lung tumor (LXFS 650) whose extra-cellular pH of about 6.9 is close to the physiological pH of 7.2-7.3 is implanted into the nude mice. The therapeutic substance used is, as in FIG. 1, 2,4-di-hydroxybenzoic acid (substance (1)). 3-4 weeks after implantation of the tumor, 15 mice with tumors 5-7 mm in diameter are divided into 3 groups: the first group of 5 serves as control group without therapy, and the substance (1) is injected into the tail vein in a concentration of 200 mg/kg/day in the second group of 5 and in a concentration of 400 mg/kg/day in the third group of 5. In the present experiment, 4 injections into the tail vein were carried out on 4 consecutive days. […] The tumor volumes were determined on days 7, 10, 14 and 17.

[3] = K-562 cancer cells, extracellular pH, FIG. 1A

O=C(O)CCC(=O)Oc1ccc(C(=O)O)c(O)c1 [4-succinic ester of 2,4-dihydroxybenzoic acid]
pH of maximum toxicity effect on K-562 cells (K-562 cancer cells; [3]): 5.7
pH of onset of toxicity effect on K-562 cells (K-562 cancer cells; [3]): ~6.5
toxicity on MNCs [1]: Negligible toxicity

O=C(O)c1ccc(O)cc1O [substance (1), 2,4-di-hydroxybenzoic acid]
effect on tumor growth ([2]; 200 mg/kg/day, only on day 10): onset of a slight effect only on day 10
tumor growth ([2]; 400 mg/kg/day, after day 7 and up to day 10): cessation of growth
tumor growth after end of therapy ([2]; 400 mg/kg/day, after day 10, therapy not continued further): the tumor starts to grow again

O=C(O)/C=C/c1ccc(F)c(F)c1 [trans-3,4-difluorocinnamic acid]
extracellular pH until which the cytotoxic effect on K-562 cells is negligible (K-562 cancer cells; cytotoxic effect negligible until the extracellular pH is below this value, K-562 cells, FIG. 2A): below 6.5
